Tests used:
Sclerotinia sclerotiorum = assay: Contact evaluation (microtiter plate fungal growth); assay type: cell-based; details: Sclerotinia sclerotionum
Procedure: Contact Evaluation. Compound solution: Contact evaluations were conducted to determine the anti-fungal activity of each compound against Botrytis cinerea, Sclerotinia sclerotiorum, Pythium aphanidermatum, Rhizoctonia solani, Cercospora arachidicola, Mycosphaerella fijiensis, and Monilinia laxa. Five milligrams of each compound were dissolved in 0.5 milliliter of DMSO for a compound stock solution of 1.0% w/v. Compound stock solutions were serial diluted with DMSO to 20, 10, and 2 ppm final well concentration. Fungi preparation: Botrytis cinerea spores were taken from 6-week-old cultures grown at 22 C on full strength potato dextrous agar (PDA) plates. Sclerotinia sclerotiorum, Pythium aphanidermatum, Rhizoctonia solani, and Monilinia laxa mycelia were taken from 4- to 10-day-old shake flask cultures grown at room temperature on full strength potato dextrous broth (PDB). Cercospora arachidicola mycelia were taken from 10- to 14-day-old shake flask cultures grown at room temperature on a full strength PDB amended with peanut oil. Mycosphaerella fijiensis mycelia were taken from 10- to 14-day-old shake flask cultures grown at room temperature on V8 juice broth. Sclerotinia sclerotiorum, Pythium aphanidermatum, Rhizoctonia solani, Cercospora arachidicola, and Mycosphaerella fijiensis mycelia (0.4 g mycelia) were blended for 45 seconds in 20 mL sterile de-ionized water. Monilinia laxa mycelia (1 g mycelia) was blended for 45 seconds in 30 mL of sterile de-ionized water. Botrytis cinerea spores were diluted with quarter strength PDB to 1×10^5 spores/mL final well concentration. All mycelia were diluted in water (1:5 mycelia:water) before distributing into the wells. Microtiter plate preparation: Compound solution (10:L), quarter strength PDB (900:L) and fungi preparation (100:L) were sequentially distributed into 48-well microtiter plates (n=3 replications/compound/rate). A blank consisted of quarter strength PDB and fungi preparation. Commercial fungicide controls (100 ppm diluted with water) consisted of Scala for Botrytis cinerea, Dithane F-45 for Mycosphaerella fijiensis, and Benlate for Sclerotinia sclerotiorum, Pythium aphanidermatum, Rhizoctonia solani, Cercospora arachidicola, and Monilinia laxa. Plates were shaken in a circular rotator at room temperature for 20 minutes, then incubated at 25C for 24 to 72 hours, depending on the pathogen. Fungal control ratings: Fungal growth in wells containing the compounds were compared to the positive control and fungal inhibition was rated as full, partial, or none. Final readings were the average of the three wells (Table 1).

Botrytis cinerea [1] = assay: as above; assay type: cell-based
Procedure: (§1) Compound solution: Contact evaluations were conducted to determine the anti-fungal activity of each compound against Botrytis cinerea, Sclerotinia sclerotiorum, Pythium aphanidermatum, Rhizoctonia solani, Cercospora arachidicola, Mycosphaerella fijiensis, and Monilinia laxa. Five milligrams of each compound were dissolved in 0.5 milliliter of DMSO for a compound stock solution of 1.0% w/v. Compound stock solutions were serial diluted with DMSO to 20, 10, and 2 ppm final well concentration.
(§2) Fungi preparation: Botrytis cinerea spores were taken from 6-week-old cultures grown at 22 C on full strength potato dextrous agar (PDA) plates. Sclerotinia sclerotiorum, Pythium aphanidermatum, Rhizoctonia solani, and Monilinia laxa mycelia were taken from 4- to 10-day-old shake flask cultures grown at room temperature on full strength potato dextrous broth (PDB). Cercospora arachidicola mycelia were taken from 10- to 14-day-old shake flask cultures grown at room temperature on a full strength PDB amended with peanut oil. Mycosphaerella fijiensis mycelia were taken from 10- to 14-day-old shake flask cultures grown at room temperature on V8 juice broth. Sclerotinia sclerotiorum, Pythium aphanidermatum, Rhizoctonia solani, Cercospora arachidicola, and Mycosphaerella fijiensis mycelia (0.4 g mycelia) were blended for 45 seconds in 20 mL sterile de-ionized water. Monilinia laxa mycelia (1 g mycelia) was blended for 45 seconds in 30 mL of sterile de-ionized water. Botrytis cinerea spores were diluted with quarter strength PDB to 1×10^5 spores/mL final well concentration. All mycelia were diluted in water (1:5 mycelia:water) before distributing into the wells.
(§3) Microtiter plate preparation: Compound solution (10:L), quarter strength PDB (900:L) and fungi preparation (100:L) were sequentially distributed into 48-well microtiter plates (n=3 replications/compound/rate). A blank consisted of quarter strength PDB and fungi preparation. Commercial fungicide controls (100 ppm diluted with water) consisted of Scala for Botrytis cinerea, Dithane F-45 for Mycosphaerella fijiensis, and Benlate for Sclerotinia sclerotiorum, Pythium aphanidermatum, Rhizoctonia solani, Cercospora arachidicola, and Monilinia laxa. Plates were shaken in a circular rotator at room temperature for 20 minutes, then incubated at 25C for 24 to 72 hours, depending on the pathogen.
(§4) Fungal control ratings: Fungal growth in wells containing the compounds were compared to the positive control and fungal inhibition was rated as full, partial, or none. Final readings were the average of the three wells (Table 1).

Rhizoctonia solani = assay: as above; assay type: cell-based; details: Rhizoctinia solani
Procedure: as §1, §2, §3, §4

Cercospora arachidicola = assay: as above; assay type: cell-based
Procedure: as §1, §2, §3, §4

Mycosphaerella fijiensis = assay: as above; assay type: cell-based
Procedure: as §1, §2, §3, §4

Pythium aphanidermatum = assay: as above; assay type: cell-based
Procedure: as §1, §2, §3, §4

Monilinia laxa = assay: as above; assay type: cell-based
Procedure: as §1, §2, §3, §4

[2] = tested on: Phaseolus vulgaris (Bush bean cv. Blue Lake 274) leaves; assay: Detached bean leaf bioassay, phytotoxicity rating; assay type: in vivo
Procedure: Detached Bean Leaf Bioassay Compound solution: Compound solutions were prepared by diluting compound stock solutions (1.0% w/v compound in DMSO) to 200 ppm with 0.01% w/v Triton X-100. Plant material: Middle trifoliate leaves of greenhouse grown Phaseolus vulgaris (Bush bean cv. Blue Lake 274) were excised and placed on a plastic grid above a tray containing moist towels. Treatment method: One half of the adaxial surface of the leaf was treated with the compound solution (100:L) using a 3 cm Bacti Cell Spreader. A blank consisted of 0.01% w/v Triton X-100. A commercial fungicide control (200 ppm diluted with water) consisted of Scala. After the solutions dried, the trays containing the leaves were covered and held one day in a growth chamber (22 C). The adaxial surfaces of the leaves were then inoculated with 5–60:L droplets of Botrytis cinerea spore solution. Phytotoxicity ratings: Phytotoxicity was rated as 0=no phytotoxicity, 1=slight phytotoxicity, 2=moderate phytotoxicity, or 3=excessive phytotoxicity (Table 2).

Botrytis cinerea [3] = assay: Detached bean leaf bioassay, fungal control; assay type: in vivo; details: 200 ppm on detached bean leaf; 100 minus percent necrotic area, three days after inoculation
Procedure: Detached Bean Leaf Bioassay
Compound solution: Compound solutions were prepared by diluting compound stock solutions (1.0% w/v compound in DMSO) to 200 ppm with 0.01% w/v Triton X-100.
Spore solution preparation: Botrytis cinerea spores were taken from 6-week-old cultures grown at 22 C on full strength potato dextrous agar (PDA) plates and harvested in 1:16 frozen orange juice concentrate:water. Botrytis cinerea spore solutions were prepared by diluting spore cultures to 5×10^4 spores/mL with 1:16 frozen orange juice concentrate:water.
Plant material: Middle trifoliate leaves of greenhouse grown Phaseolus vulgaris (Bush bean cv. Blue Lake 274) were excised and placed on a plastic grid above a tray containing moist towels.
Treatment method: One half of the adaxial surface of the leaf was treated with the compound solution (100:L) using a 3 cm Bacti Cell Spreader. A blank consisted of 0.01% w/v Triton X-100. A commercial fungicide control (200 ppm diluted with water) consisted of Scala. After the solutions dried, the trays containing the leaves were covered and held one day in a growth chamber (22 C). The adaxial surfaces of the leaves were then inoculated with 5–60:L droplets of Botrytis cinerea spore solution.
Fungal control rating: Three days after inoculation with Botrytis, the percent necrotic area under the inoculation droplet was determined. Since the areas under the blank (0.01% w/v Triton X-100) were 100% infected, fungal control was expressed as 100 minus the percent necrotic area, and thus 0% infected is 100% fungal control (n=3 leaves/compound, 5 inoculation droplets/leaf, Table 2).

SMILES	Control of fungi (full, partial, none) (Sclerotinia sclerotiorum; fungicide rate 2 ppm)	Control of fungi (full, partial, none) (Sclerotinia sclerotiorum; fungicide rate 10 ppm)	Control of fungi (full, partial, none) (Sclerotinia sclerotiorum; fungicide rate 20 ppm)	Control of fungi (full, partial, none) (Botrytis cinerea [1]; fungicide rate 2 ppm)	Control of fungi (full, partial, none) (Botrytis cinerea [1]; fungicide rate 10 ppm)	Control of fungi (full, partial, none) (Botrytis cinerea [1]; fungicide rate 20 ppm)	Control of fungi (full, partial, none) (Rhizoctonia solani; fungicide rate 2 ppm)	Control of fungi (full, partial, none) (Rhizoctonia solani; fungicide rate 10 ppm)	Control of fungi (full, partial, none) (Rhizoctonia solani; fungicide rate 20 ppm)	Control of fungi (full, partial, none) (Cercospora arachidicola; fungicide rate 2 ppm)	Control of fungi (full, partial, none) (Cercospora arachidicola; fungicide rate 10 ppm)	Control of fungi (full, partial, none) (Cercospora arachidicola; fungicide rate 20 ppm)	Control of fungi (full, partial, none) (Mycosphaerella fijiensis; fungicide rate 2 ppm)	Control of fungi (full, partial, none) (Mycosphaerella fijiensis; fungicide rate 10 ppm)	Control of fungi (full, partial, none) (Mycosphaerella fijiensis; fungicide rate 20 ppm)	Control of fungi (full, partial, none) (Pythium aphanidermatum; fungicide rate 2 ppm)	Control of fungi (full, partial, none) (Pythium aphanidermatum; fungicide rate 10 ppm)	Control of fungi (full, partial, none) (Pythium aphanidermatum; fungicide rate 20 ppm)	Control of fungi (full, partial, none) (Monilinia laxa; fungicide rate 2 ppm)	Control of fungi (full, partial, none) (Monilinia laxa; fungicide rate 10 ppm)	also measured
O=[N+]([O-])c1ccc(O)c(-c2ccc(Cl)cc2)c1 [X = Cl]	Full	Full	Full	Full	Full	Full	Full	Full	Full	Full	Full	Full	Full	Full	Full	Full	Full	Full	Full	Full	Control of fungi (full, partial, none) (Monilinia laxa; fungicide rate 20 ppm): Full; Phytotoxity (200 ppm) [2]: Moderate; Botrytis cinerea control (200 ppm) (Botrytis cinerea [3]): 97%
O=[N+]([O-])c1ccc(O)c(-c2ccc(C(F)(F)F)cc2)c1 [X = CF3]	Full	Full	Full	Full	Full	Full	Partial	Full	Full	Full	Full	Full	Full	Full	Full	Full	Full	Full	Full	Full	Control of fungi (full, partial, none) (Monilinia laxa; fungicide rate 20 ppm): Full; Phytotoxity (200 ppm) [2]: Moderate; Botrytis cinerea control (200 ppm) (Botrytis cinerea [3]): 100%
O=[N+]([O-])c1ccc(O)c(-c2ccc(F)cc2)c1 [X = F]	Full	Full	Full	Partial	Full	Full	None	Full	Full	Full	Full	Full	Full	Full	Full	Partial	Full	Full	Partial	Full	Control of fungi (full, partial, none) (Monilinia laxa; fungicide rate 20 ppm): Full; Phytotoxity (200 ppm) [2]: None; Botrytis cinerea control (200 ppm) (Botrytis cinerea [3]): 31%
